Structures can show the parent of a compound that is named as a salt. Where two headings read alike, the source gives them in different places.
Legend:
Format in all cases: physicochemical
[1] = Extractive distillation agent separating methyl t-butyl ether from 1-pentene (vapor-liquid equilibrium still)
[2] = Extractive distillation agent separating methyl t-butyl ether from n-pentane-cyclopentane mixtures (vapor-liquid equilibrium still)
[3] = Relative volatility of methyl t-butyl ether from close boiling hydrocarbons, no agent (vapor-liquid equilibrium still); conditions: hydrocarbon to methyl t-butyl ether
Text: I have discovered that certain organic compounds will effectively increase the relative volatility between methyl t-butyl ether and close boiling hydrocarbons when employed as the agent in extractive distillation. The data in Tables 2-6 was obtained in a vapor-liquid equilibrium still.

[4] = Extractive distillation agent separating methyl t-butyl ether from cyclopentane (vapor-liquid equilibrium still); conditions: cyclopentane to methyl t-butyl ether, with agent
Text: The data in Tables 2-6 was obtained in a vapor-liquid equilibrium still.

[5] = cyclopentane to methyl t-butyl ether, n-pentane-cyclopentane mixture, with agent
[6] = n-pentane to methyl t-butyl ether, n-pentane-cyclopentane mixture, with agent
[7] = 1-pentene to methyl t-butyl ether, with agent

For CC[N+](=O)[O-] [Nitroethane], the “Relative Volatility” value [1] was 3.0, the “Relative Volatility CyP/MTBE” value [2] was 2.9 and the “Relative Volatility Pnt/MTBE” value [2] was 5.2.
For CC(C)[N+](=O)[O-] [2-Nitropropane], the “Relative Volatility CyP/MTBE” value [2, 5] was 2.2 and the “Relative Volatility Pnt/MTBE” value [2, 6] was 3.8.
With CC(=O)OCCOC(C)=O [Ethylene glycol diacetate] the “Relative Volatility” value [1, 7] was 5.5, the “Relative Volatility CyP/MTBE” value [2, 5] was 1.8 and the “Relative Volatility Pnt/MTBE” value [2, 6] was 3.3.
In the case of CC(=O)CCC(C)C [Methyl isoamyl ketone], the “Relative Volatility” value [1, 7] is reported as 2.6, the “Relative Volatility CyP/MTBE” value [2, 5] is reported as 1.7 and the “Relative Volatility Pnt/MTBE” value [2, 6] is reported as 2.8.
With CCC[N+](=O)[O-] [1-Nitropropane] the “Relative Volatility CyP/MTBE” value [2, 5] was 2.8 and the “Relative Volatility Pnt/MTBE” value [2, 6] was 5.2.
For CCOC(=O)/C=C\C(=O)OCC [Diethyl maleate], the “Relative Volatility CyP/MTBE” value [2, 5] was 1.8 and the “Relative Volatility Pnt/MTBE” value [2, 6] was 3.4.
With COC(=O)c1ccccc1O [Methyl salicylate] the “Relative Volatility CyP/MTBE” value [2, 5] was 1.6 and the “Relative Volatility Pnt/MTBE” value [2, 6] was 1.9.
In the case of CCCCC [n-Pentane], the “Relative Volatility” value [3] is reported as 1.6 and the “Relative Volatility” value ([3]; listed as n-pentane) is reported as “less than 1.7”.
In the case of C[N+](=O)[O-] [Nitromethane], the “Relative Volatility CyP/MTBE” value [2] is reported as 1.6 and the “Relative Volatility Pnt/MTBE” value [2] is reported as 1.5.
With CCOC(=O)CC(C)C [Ethyl isovalerate] the “Relative Volatility CyP/MTBE” value [2, 5] was 1.5 and the “Relative Volatility Pnt/MTBE” value [2, 6] was 2.5.
In the case of C[S+](C)[O-] [Dimethylsulfoxide], the “Relative Volatility” value [1, 7] is reported as 3.9, the “Relative Volatility” value [4] is reported as 1.8 and the “Relative Volatility CyP/MTBE” value [2, 5] is reported as 2.7. The “Relative Volatility Pnt/MTBE” value [2, 6] was 2.8.
For COCCO [Ethylene glycol methyl ether], the “Relative Volatility” value [1] was 3.6.
For CCOC(=O)CC(C)=O [Ethyl acetoacetate], the “Relative Volatility CyP/MTBE” value [2, 5] was 1.9 and the “Relative Volatility Pnt/MTBE” value [2, 6] was 4.2.
With CCOC(C)=O [Ethyl acetate] the “Relative Volatility CyP/MTBE” value [2, 5] was 1.8 and the “Relative Volatility Pnt/MTBE” value [2, 6] was 2.9.
For CN(C)C=O [Dimethylformamide], the “Relative Volatility” value [1] was 3.0, the “Relative Volatility” value [4] was 2.0 and the “Relative Volatility CyP/MTBE” value [2] was 2.3. For the same compound, the “Relative Volatility Pnt/MTBE” value [2] was 4.7.
With CCCCCCOC=O [n-Hexyl formate] the “Relative Volatility CyP/MTBE” value [2, 5] was 1.6 and the “Relative Volatility Pnt/MTBE” value [2, 6] was 1.6.
With CC(=O)OC(C)C [Isopropyl acetate] the “Relative Volatility CyP/MTBE” value [2, 5] was 1.8 and the “Relative Volatility Pnt/MTBE” value [2, 6] was 3.1.
In the case of COCC(C)OC(C)=O (stereo not shown) [1-Methoxy-2-propanol acetate], the “Relative Volatility” value [1, 7] is reported as 3.5, the “Relative Volatility CyP/MTBE” value [2, 5] is reported as 1.9 and the “Relative Volatility Pnt/MTBE” value [2, 6] is reported as 3.3.
For CCCOC(C)=O [n-Propyl acetate], the “Relative Volatility CyP/MTBE” value [2, 5] was 1.8 and the “Relative Volatility Pnt/MTBE” value [2, 6] was 2.6.
In the case of C=CCCC [1-Pentene], the “Relative Volatility” value [3] is reported as 1.7 and the “Relative Volatility” value ([3]; listed as 1-pentene) is reported as “less than 1.7”.
With CC1=CC(=O)CC(C)(C)C1 [Isophorone] the “Relative Volatility CyP/MTBE” value [2, 5] was 1.5 and the “Relative Volatility Pnt/MTBE” value [2, 6] was 2.8.
With CC(C)(C)O [t-Butanol] the “Relative Volatility” value [4] was 2.2.
In the case of O=S1(=O)CCCC1 [Sulfolane], the “Relative Volatility” value [1] is reported as 4.4, the “Relative Volatility” value [4] is reported as 3.6 and the “Relative Volatility CyP/MTBE” value [2, 5] is reported as 3.6. The “Relative Volatility Pnt/MTBE” value [2, 6] was 2.4.
With CCOC(=O)CC(=O)OCC [Diethyl malonate] the “Relative Volatility” value [1, 7] was 3.1, the “Relative Volatility CyP/MTBE” value [2, 5] was 2.0 and the “Relative Volatility Pnt/MTBE” value [2, 6] was 3.7.
In the case of CC(=O)CC(C)=O [2,4-Pentanedione], the “Relative Volatility CyP/MTBE” value [2, 5] is reported as 1.9 and the “Relative Volatility Pnt/MTBE” value [2, 6] is reported as 3.4.
With CC(=O)c1ccccc1 [Acetophenone] the “Relative Volatility” value [4] was 1.6, the “Relative Volatility CyP/MTBE” value [2, 5] was 1.7 and the “Relative Volatility Pnt/MTBE” value [2, 6] was 1.7.
With CN1CCCC1=O [1-Methyl-2-pyrrolidinone] the “Relative Volatility” value [4] was 1.8, the “Relative Volatility CyP/MTBE” value [2, 5] was 1.8 and the “Relative Volatility Pnt/MTBE” value [2, 6] was 3.9.
For C1CCCC1 [Cyclopentane], the “Relative Volatility” value [3] was 1.55 and the “Relative Volatility” value ([3]; listed as cyclopentane) was “less than 1.7”.
With CC(C)CC(=O)CC(C)C [Diisobutyl ketone] the “Relative Volatility CyP/MTBE” value [2, 5] was 1.5 and the “Relative Volatility Pnt/MTBE” value [2, 6] was 2.5.
In the case of CCOC(=O)OCC [Diethyl carbonate], the “Relative Volatility CyP/MTBE” value [2, 5] is reported as 1.8 and the “Relative Volatility Pnt/MTBE” value [2, 6] is reported as 3.1.
With CC(=O)OCC(COC(C)=O)OC(C)=O [Triacetin] the “Relative Volatility CyP/MTBE” value [2, 5] was 1.9 and the “Relative Volatility Pnt/MTBE” value [2, 6] was 3.6.
In the case of CC(O)COc1ccccc1 (stereo not shown) [Propylene glycol phenyl ether], the “Relative Volatility” value [1, 7] is reported as 3.2, the “Relative Volatility CyP/MTBE” value [2, 5] is reported as 2.0 and the “Relative Volatility Pnt/MTBE” value [2, 6] is reported as 4.2.
